{"source": "patent US20190071416A1", "about": "“COMPOUNDS FOR TREATMENT OF CANCER AND EPIGENETICS” (Agency For Science, Technology and Research, priority 2015, published 2019)", "data": [{"target": "T1, SMYD3 (Homo sapiens, UniProt Q9H7B4)", "T1 sequence (Q9H7B4 1-428)": "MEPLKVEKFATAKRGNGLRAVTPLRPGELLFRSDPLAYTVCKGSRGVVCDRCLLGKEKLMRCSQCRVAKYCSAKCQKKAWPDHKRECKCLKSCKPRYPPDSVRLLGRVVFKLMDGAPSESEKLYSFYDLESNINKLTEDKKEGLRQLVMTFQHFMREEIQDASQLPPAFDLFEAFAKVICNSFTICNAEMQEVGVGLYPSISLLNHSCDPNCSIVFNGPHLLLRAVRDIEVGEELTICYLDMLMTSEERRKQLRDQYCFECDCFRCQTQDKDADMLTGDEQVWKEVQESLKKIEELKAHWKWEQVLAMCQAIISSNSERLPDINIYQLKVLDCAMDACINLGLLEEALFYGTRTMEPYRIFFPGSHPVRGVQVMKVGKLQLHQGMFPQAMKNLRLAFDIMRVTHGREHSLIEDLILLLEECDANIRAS", "assay": "SMYD3 biochemical assay (MTase-Glo, MAP3K2 peptide substrate)", "conditions": "Table 3; MTase assay, MAP3K2 peptide substrate; read-out: IC50", "how_it_was_run": "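Luminescent readout of SAH production (coupled SAH→ATP conversion, MTase-Glo) after SMYD3 reacted 30 min at room temperature with 1.0 µM SAM and 10 µM MAP3K2 peptide, both final. Non-linear regression gave IC50 values.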", "units": {"IC50": "nM"}, "values": [{"smiles": "CCCOC(=O)N1CCN(C(=O)c2ccc3c(Cl)cc(-c4ccc(C(C)(C)O)cc4)nc3c2)CC1", "note": "[B244, Propyl 4-(4-chloro-2-(4-(2-hydroxypropan-2-yl)phenyl)quinoline-7-carbonyl)piperazine-1-carboxylate]", "IC50": 140}, {"smiles": "CNC(=O)c1ccc(-c2cc(Cl)c3ccc(C(=O)N4CCN(C(=O)OCC(C)C)CC4)cc3n2)cc1", "note": "[B245, Isobutyl 4-(4-chloro-2-(4-(methylcarbamoyl)phenyl)quinoline-7-carbonyl)piperazine-1-carboxylate]", "IC50": 1010}, {"smiles": "CC(C)COC(=O)N1CCN(C(=O)c2ccc3c(Cl)cc(-c4ccn(C)c4)nc3c2)CC1", "note": "[B246, Isobutyl 4-(4-chloro-2-(1-methyl-1H-pyrrol-3-yl)quinoline-7-carbonyl)piperazine-1-carboxylate]", "IC50": 270}, {"smiles": "CNC(=O)c1ccc(-c2cc(Cl)c3ccc(C(=O)N4CCN(C(=O)OCCF)CC4)cc3n2)cc1", "note": "[B247, 2-Fluoroethyl 4-(4-chloro-2-(4-(methylcarbamoyl)phenyl)quinoline-7-carbonyl)piperazine-1-carboxylate]", "IC50": 7400}, {"smiles": "Cn1ccc(-c2cc(Cl)c3ccc(C(=O)N4CCN(C(=O)OCCF)CC4)cc3n2)c1", "note": "[B248, 2-Fluoroethyl 4-(4-chloro-2-(1-methyl-1H-pyrrol-3-yl)quinoline-7-carbonyl)piperazine-1-carboxylate]", "IC50": 140}, {"smiles": "CCCOC(=O)N1CCN(C(=O)c2ccc3c(Cl)cc(-c4cnn(CC(N)=O)c4)nc3c2)CC1", "note": "[B249, Propyl 4-(2-(1-(2-amino-2-oxoethyl)-1H-pyrazol-4-yl)-4-chloroquinoline-7-carbonyl)piperazine-1-carboxylate]", "IC50": 190}, {"smiles": "CCCOC(=O)N1CCN(C(=O)c2ccc3c(Cl)cc(-c4cn[nH]c4C(F)(F)F)nc3c2)CC1", "note": "[B250, Propyl 4-(4-chloro-2-(5-(trifluoromethyl)-1H-pyrazol-4-yl)quinoline-7-carbonyl)piperazine-1-carboxylate]", "IC50": 4900}, {"smiles": "CCCOC(=O)N1CCN(C(=O)c2ccc3c(Cl)cc(-c4cc[nH]c4)nc3c2)C[C@H]1C", "note": "[B251, Propyl (R)-4-(4-chloro-2-(1H-pyrrol-3-yl)quinoline-7-carbonyl)-2-methylpiperazine-1-carboxylate]", "IC50": 43}, {"smiles": "CCCOC(=O)N1CCN(C(=O)c2ccc3c(Cl)cc(-c4ccn(S(C)(=O)=O)c4)nc3c2)CC1", "note": "[B252, Propyl 4-(4-chloro-2-(1-(methylsulfonyl)-1H-pyrrol-3-yl)quinoline-7-carbonyl)piperazine-1-carboxylate]", "IC50": 520}, {"smiles": "CCCOC(=O)N1CCN(C(=O)c2ccc3c(Cl)cc(-c4cc(F)c(C(N)=O)c(F)c4)nc3c2)CC1", "note": "[B253, Propyl 4-(2-(4-carbamoyl-3,5-difluorophenyl)-4-chloroquinoline-7-carbonyl)piperazine-1-carboxylate]", "IC50": 490}, {"smiles": "CCCOC(=O)N1CCN(C(=O)c2ccc3c(Cl)cc(-c4cc[nH]c4)nc3c2)[C@@H](C)C1", "note": "[B254, Propyl (S)-4-(4-chloro-2-(1H-pyrrol-3-yl)quinoline-7-carbonyl)-3-methylpiperazine-1-carboxylate]", "IC50": 54}, {"smiles": "CCCOC(=O)N1CCN(C(=O)c2ccc3c(Cl)cc(-c4ccc(CO)cc4)nc3c2)CC1", "note": "[B255, Propyl 4-(4-chloro-2-(4-(hydroxymethyl)phenyl)quinoline-7-carbonyl)piperazine-1-carboxylate]", "IC50": 28}, {"smiles": "CCCOC(=O)N1CCN(C(=O)c2ccc3c(Cl)cc(-c4ccc(COCC)cc4)nc3c2)CC1", "note": "[B256, Propyl 4-(4-chloro-2-(4-(ethoxymethyl)phenyl)quinoline-7-carbonyl)piperazine-1-carboxylate]", "IC50": 500}, {"smiles": "CCCOC(=O)N1CCN(C(=O)c2ccc3c(Cl)cc(-c4ccc(CO)c(F)c4)nc3c2)CC1", "note": "[B257, Propyl 4-(4-chloro-2-(3-fluoro-4-(hydroxymethyl)phenyl)quinoline-7-carbonyl)piperazine-1-carboxylate]", "IC50": 150}, {"smiles": "CCCOC(=O)N1CCN(C(=O)c2ccc3c(Cl)cc(-c4cc(F)c(CN)c(F)c4)nc3c2)CC1", "note": "[B258, Propyl 4-(2-(4-(aminomethyl)-3,5-difluorophenyl)-4-chloroquinoline-7-carbonyl)piperazine-1-carboxylate]", "IC50": 850}, {"smiles": "C[C@@H]1CN(C(=O)c2ccc3c(Cl)cc(C4CC4)nc3c2)CCN1C(=O)OCCF", "note": "[B259, 2-Fluoroethyl (R)-4-(4-chloro-2-cyclopropylquinoline-7-carbonyl)-2-methylpiperazine-1-carboxylate]", "IC50": 2600}, {"smiles": "C[C@H]1CN(C(=O)OCCF)CCN1C(=O)c1ccc2c(Cl)cc(C3CC3)nc2c1", "note": "[B260, 2-Fluoroethyl (S)-4-(4-chloro-2-cyclopropylquinoline-7-carbonyl)-3-methylpiperazine-1-carboxylate]", "IC50": 4900}, {"smiles": "Cn1cc(-c2cc(Cl)c3ccc(C(=O)N4CCN(C(=O)OCCF)CC4)cc3n2)cn1", "note": "[B261, 2-Fluoroethyl 4-(4-chloro-2-(1-methyl-1H-pyrazol-4-yl)quinoline-7-carbonyl)piperazine-1-carboxylate]", "IC50": 2700}, {"smiles": "CCCOC(=O)N1CCN(C(=O)c2ccc3c(Cl)c(F)c(-c4ccn(C)c4)nc3c2)CC1", "note": "[B262, Propyl 4-(4-chloro-3-fluoro-2-(1-methyl-1H-pyrrol-3-yl)quinoline-7-carbonyl)piperazine-1-carboxylate]", "IC50": 390}, {"smiles": "CCCOC(=O)N1CCN(C(=O)c2ccc3c(Cl)cc(C4(F)CC4)nc3c2)CC1", "note": "[B263, Propyl 4-(4-chloro-2-(1-fluorocyclopropyl)quinoline-7-carbonyl)piperazine-1-carboxylate]", "IC50": 13900}, {"smiles": "CCCOC(=O)N1CCN(C(=O)c2ccc3c(Cl)cc(-c4ccc(CN=[N+]=[N-])cc4)nc3c2)CC1", "note": "[B264, Propyl 4-(2-(4-(azidomethyl)phenyl)-4-chloroquinoline-7-carbonyl)piperazine-1-carboxylate]", "IC50": 84}, {"smiles": "CCCOC(=O)N1CCN(C(=O)c2ccc3c(Cl)cc(-c4ccc(C(C)(C)O)cc4)nc3c2)C[C@H]1C", "note": "[B265, Propyl (R)-4-(4-chloro-2-(4-(2-hydroxypropan-2-yl)phenyl)quinoline-7-carbonyl)-2-methylpiperazine-1-carboxylate]", "IC50": 67}, {"smiles": "CC(C)(O)c1ccc(-c2cc(Cl)c3ccc(C(=O)N4CCN(C(=O)OCCF)CC4)cc3n2)cc1", "note": "[B266, 2-Fluoroethyl 4-(4-chloro-2-(4-(2-hydroxypropan-2-yl)phenyl)quinoline-7-carbonyl)piperazine-1-carboxylate]", "IC50": 3300}, {"smiles": "C[C@@H]1CN(C(=O)c2ccc3c(Cl)cc(-c4ccc(C(C)(C)O)cc4)nc3c2)CCN1C(=O)OCCF", "note": "[B267, 2-Fluoroethyl (R)-4-(4-chloro-2-(4-(2-hydroxypropan-2-yl)phenyl)quinoline-7-carbonyl)-2-methylpiperazine-1-carboxylate]", "IC50": 150}, {"smiles": "CCCOC(=O)N1CCN(C(=O)c2ccc3c(Cl)cc(-c4ccn(C)c4)nc3c2)C[C@H]1C", "note": "[B268, Propyl (R)-4-(4-chloro-2-(1-methyl-1H-pyrrol-3-yl)quinoline-7-carbonyl)-2-methylpiperazine-1-carboxylate]", "IC50": 17}, {"smiles": "CCCOC(=O)N1CCN(C(=O)c2ccc3c(Cl)cc(-c4ccc(C(C)(C)O)c(F)c4)nc3c2)C[C@H]1C", "note": "[B269, Propyl (R)-4-(4-chloro-2-(3-fluoro-4-(2-hydroxypropan-2-yl)phenyl)quinoline-7-carbonyl)-2-methylpiperazine-1-carboxylate]", "IC50": 170}, {"smiles": "CCCOC(=O)N1CCN(C(=O)c2ccc3c(Cl)cc(-c4ccc(C(C)(C)O)cc4)nc3c2)C[C@@H]1C", "note": "[B270, Propyl (S)-4-(4-chloro-2-(4-(2-hydroxypropan-2-yl)phenyl)quinoline-7-carbonyl)-2-methylpiperazine-1-carboxylate]", "IC50": 16}, {"smiles": "CCCOC(=O)N1CCN(C(=O)c2ccc3c(Cl)cc(-c4cnn(C5COC5)c4)nc3c2)CC1", "note": "[B271, Propyl 4-(4-chloro-2-(1-(oxetan-3-yl)-1H-pyrazol-4-yl)quinoline-7-carbonyl)piperazine-1-carboxylate]", "IC50": 34}, {"smiles": "CCCOC(=O)N1CCN(C(=O)c2ccc3c(Cl)cc(-c4cnn(C5COC5)c4)nc3c2)C[C@H]1C", "note": "[B272, Propyl (R)-4-(4-chloro-2-(1-(oxetan-3-yl)-1H-pyrazol-4-yl)quinoline-7-carbonyl)-2-methylpiperazine-1-carboxylate]", "IC50": 16}, {"smiles": "CCCOC(=O)N1CCN(C(=O)c2ccc3c(Cl)cc(-c4cnn(C5COC5)c4)nc3c2)C[C@@H]1C", "note": "[B273, Propyl (S)-4-(4-chloro-2-(1-(oxetan-3-yl)-1H-pyrazol-4-yl)quinoline-7-carbonyl)-2-methylpiperazine-1-carboxylate]", "IC50": 19}, {"smiles": "CCCOC(=O)N1CCN(C(=O)c2ccc3c(Cl)cc(-c4cnn(CC(F)(F)F)c4)nc3c2)CC1", "note": "[B274, Propyl 4-(4-chloro-2-(1-(2,2,2-trifluoroethyl)-1H-pyrazol-4-yl)quinoline-7-carbonyl)piperazine-1-carboxylate]", "IC50": 210}, {"smiles": "CCCOC(=O)N1CCN(C(=O)c2ccc3c(Cl)cc(-c4cnn(CC(F)(F)F)c4)nc3c2)C[C@H]1C", "note": "[B275, Propyl (R)-4-(4-chloro-2-(1-(2,2,2-trifluoroethyl)-1H-pyrazol-4-yl)quinoline-7-carbonyl)-2-methylpiperazine-1-carboxylate]", "IC50": 34}, {"smiles": "CCCOC(=O)N1CCN(C(=O)c2ccc3c(Cl)cc(-c4cnn(CC(F)(F)F)c4)nc3c2)C[C@@H]1C", "note": "[B276, Propyl (S)-4-(4-chloro-2-(1-(2,2,2-trifluoroethyl)-1H-pyrazol-4-yl)quinoline-7-carbonyl)-2-methylpiperazine-1-carboxylate]", "IC50": 22}]}]}
